Columns and labels:
Type in all cases: cell-based
SW480 colon cancer cells = experiment: Cell viability assay (CellTiter-Blue), four days; settings: Homo sapiens, 96 h; for EC50: CellTiter-Blue cell viability; for inhibition at 10 µM: read-out: percent inhibition at 10 μM (given for EC50 of >10 μM)
How it was run: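 4-day exposure, 37 °C/5% CO2; ~2×10^3 SW480 cells/well; 8-pt 1:3 curve, 10–0.0045 μM, duplicates vs DMSO controls. Resazurin→resorufin fluorescence readout, ~3 h. EC50 by nonlinear fit; if >10 μM, % inhibition at 10 μM reported.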

IL-6 (THP-1 cells) = experiment: Inhibition of IL-6 in LPS-stimulated THP-1 monocytes (HTRF); settings: Homo sapiens; for EC50: LPS 500 ng/mL, IL-6 by HTRF; for inhibition at 10 µM: LPS stimulated, IL-6, at 10 μM, read-out: percent inhibition at 10 μM (given for EC50 of >10 μM)
How it was run: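 IL-6 release was read as the HTRF 665/620 nm ratio after 22 h of 500 ng/mL LPS at 37 °C. Before stimulation, THP-1 cells kept 24 h in 1% FBS were exposed 2 h to a 10-point 1:3 compound series starting at 10 μM, in 0.1% DMSO. Four-parameter EC50s came from DMSO-normalized duplicates, with % inhibition at 10 μM reported beyond 10 μM.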

[1] = test system: Wnt activity (Sp5-Luc reporter, SW480 colon carcinoma cells); experiment: Screening assay for Wnt activity: Sp5-Luc reporter gene assay in SW480 cells; settings: Homo sapiens, overnight incubation, 10-point dose-response from 10 μM
How it was run: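 Luminescence (BrightGlo) read after overnight 37 °C exposure of Sp5-Luc SW480 reporter cells, 4,000/well in 1% FBS, to compound dosed 1:3 over 10 points from 10 μM with 0.1% DMSO. Values normalized to DMSO-only cells, fitted with variable-slope four-parameter model; where EC50 exceeds 10 μM, % inhibition at 10 μM reported.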

Row | Structure (SMILES) | EC50 (SW480 colon cancer cells) [µM] | EC50 (IL-6 (THP-1 cells)) [µM] | EC50 [1] [µM] | inhibition at 10 µM (IL-6 (THP-1 cells)) [%] | inhibition at 10 µM (SW480 colon cancer cells) [%]
1 | CC(C)CC(=O)Nc1cncc(-c2ccc3[nH]nc(-c4nc5c(-c6cccc(F)c6)ccnc5[nH]4)c3n2)c1 [Compound 2, N-(5-(3-(7-(3-fluorophenyl)-3H-imidazo[4,5-b]pyridin-2-yl)-1H-pyrazolo [4,3-b]pyridin-5-yl)pyridin-3-yl)-3-methylbutanamide] | 0.4 | 0.296 | 0.495 | – | –
2 | CN(C)c1cncc(-c2ccc3[nH]nc(-c4nc5c(-c6cccc(F)c6)ccnc5[nH]4)c3n2)c1 [Compound 7, 5-(3-(7-(3-fluorophenyl)-3H-imidazo[4,5-b]pyridin-2-yl)-1H-pyrazolo[4,3-b]pyridin-5-yl)-N,N-dimethylpyridin-3-amine] | 0.54 | 7.5 | 0.929 | – | –
3 | CN(C)Cc1cncc(-c2ccc3[nH]nc(-c4nc5c(-c6cccc(F)c6)ccnc5[nH]4)c3n2)c1 [Compound 13, 1-(5-(3-(7-(3-fluorophenyl)-3H-imidazo[4,5-b]pyridin-2-yl)-1H-pyrazolo [4,3-b]pyridin-5-yl)pyridin-3-yl)-N,N-dimethylmethanamine] | 1.13 | 5.93 | 2.88 | – | –
4 | CC(C)(C)CC(=O)Nc1cncc(-c2ccc3[nH]nc(-c4nc5c(-c6ccccc6F)ccnc5[nH]4)c3n2)c1 [Compound 72, N-(5-(3-(7-(2-fluorophenyl)-3H-imidazo[4,5-b]pyridin-2-yl)-1H-pyrazolo [4,3-b]pyridin-5-yl)pyridin-3-yl)-3,3-dimethylbutanamide] | > 10 | > 10 | 1.99 | 27.8 | 0
5 | CC(C)Nc1cncc(-c2ccc3[nH]nc(-c4nc5c(-c6cccnc6)ccnc5[nH]4)c3n2)c1 [Compound 96, N-isopropyl-5-(3-(7-(pyridin-3-yl)-3H-imidazo[4,5-b]pyridin-2-yl)-1H-pyrazolo[4,3-b]pyridin-5-yl)pyridin-3-amine] | 2 | 0.424 | 1.96 | – | –
6 | Cc1ccncc1-c1ccc2[nH]nc(-c3nc4c(-c5ccsc5)ccnc4[nH]3)c2n1 [Compound 285, 5-(4-methylpyridin-3-yl)-3-(7-(thiophen-3-yl)-3H-imidazo[4,5-b]pyridin-2-yl)-1H-pyrazolo[4,3-b]pyridine] | 0.944 | 9.88 | 0.865 | – | –
7 | CN(C)Cc1cncc(-c2ccc3[nH]nc(-c4nc5c(-c6cccs6)ccnc5[nH]4)c3n2)c1 [Compound 349, N,N-dimethyl-1-(5-(3-(7-(thiophen-2-yl)-3H-imidazo[4,5-b]pyridin-2-yl)-1H-pyrazolo[4,3-b]pyridin-5-yl)pyridin-3-yl)methanamine] | 1.16 | 4.78 | 3.96 | – | –
8 | O=C(Nc1cncc(-c2ccc3[nH]nc(-c4nc5c(-c6cccs6)ccnc5[nH]4)c3n2)c1)C1CC1 [Compound 356, N-(5-(3-(7-(Thiophen-2-yl)-3H-imidazo[4,5-b]pyridin-2-yl)-1H-pyrazolo [4,3-b]pyridin-5-yl)pyridin-3-yl)cyclopropanecarboxamide] | > 10 | > 10 | 2.28 | 38 | 12.4
9 | CC(C)Nc1cncc(-c2ccc3[nH]nc(-c4nc5c(-c6cc(F)cc(NCCN(C)C)c6)ccnc5[nH]4)c3n2)c1 [Compound 460, N^1-(3-fluoro-5-(2-(5-(5-(isopropylamino)pyridin-3-yl)-1H-pyrazolo[4,3-b]pyridin-3-yl)-3H-imidazo[4,5-b]pyridin-7-yl)phenyl)-N^2,N^2-dimethylethane-1,2-diamine] | 0.695 | 1.8 | 1.18 | – | –

Further lines, with some results ahead:

Row | EC50 (SW480 colon cancer cells) [µM] | EC50 (IL-6 (THP-1 cells)) [µM] | EC50 [1] [µM] | Structure (SMILES) | inhibition at 10 µM (IL-6 (THP-1 cells)) [%] | inhibition at 10 µM (SW480 colon cancer cells) [%]
10 | 1.08 | > 10 | 3.73 | Fc1ccc(-c2ccnc3[nH]c(-c4n[nH]c5ccc(-c6cncc(CN7CCCC7)c6)nc45)nc23)cc1 [Compound 42, 3-(7-(4-fluorophenyl)-3H-imidazo[4,5-b]pyridin-2-yl)-5-(5-(pyrrolidin-1-ylmethyl)pyridin-3-yl)-1H-pyrazolo[4,3-b]pyridine] | 46.1 | –
11 | 0.551 | > 10 | 0.908 | O=C(Nc1cncc(-c2ccc3[nH]nc(-c4nc5c(-c6ccc(F)cc6)ccnc5[nH]4)c3n2)c1)C1CCC1 [Compound 49, N-(5-(3-(7-(4-fluorophenyl)-3H-imidazo[4,5-b]pyridin-2-yl)-1H-pyrazolo [4,3-b]pyridin-5-yl)pyridin-3-yl)cyclobutanecarboxamide] | 44 | –
12 | > 10 | > 10 | 0.67 | Fc1ccccc1-c1ccnc2[nH]c(-c3n[nH]c4ccc(-c5ccccn5)nc34)nc12 [Compound 84, 3-(7-(2-Fluorophenyl)-3H-imidazo[4,5-b]pyridin-2-yl)-5-(pyridin-2-yl)-1H-pyrazolo[4,3-b]pyridine] | 23 | 0
13 | > 10 | > 10 | 1.6 | c1cncc(-c2ccc3[nH]nc(-c4nc5c(-c6cccnc6)ccnc5[nH]4)c3n2)c1 [Compound 88, 5-(pyridin-3-yl)-3-(7-(pyridin-3-yl)-3H-imidazo[4,5-b]pyridin-2-yl)-1H-pyrazolo [4,3-b]pyridine] | 36.6 | 42.2
14 | 3.91 | > 10 | 4 | O=C(Nc1cncc(-c2ccc3[nH]nc(-c4nc5c(N6CCCCC6)ccnc5[nH]4)c3n2)c1)C1CC1 [Compound 188, N-(5-(3-(7-(Piperidin-1-yl)-3H-imidazo[4,5-b]pyridin-2-yl)-1H-pyrazolo [4,3-b]pyridin-5-yl)pyridin-3-yl)cyclopropanecarboxamide] | 28 | –
15 | > 10 | > 10 | 0.527 | O=C(Nc1cncc(-c2ccc3[nH]nc(-c4nc5c(-c6ccsc6)ccnc5[nH]4)c3n2)c1)c1ccccc1 [Compound 291, N-(5-(3-(7-(Thiophen-3-yl)-3H-imidazo[4,5-b]pyridin-2-yl)-1H-pyrazolo [4,3-b]pyridin-5-yl)pyridin-3-yl)benzamide] | 21 | 2
16 | 2.64 | 9.91 | 0.822 | CCCC(=O)Nc1cncc(-c2ccc3[nH]nc(-c4nc5c(-c6ccsc6)ccnc5[nH]4)c3n2)c1 [Compound 297, N-(5-(3-(7-(thiophen-3-yl)-3H-imidazo[4,5-b]pyridin-2-yl)-1H-pyrazolo[4,3-b]pyridin-5-yl)pyridin-3-yl)butyramide] | – | –
17 | 0.58 | 1.33 | 0.533 | FC1(F)CCN(Cc2cncc(-c3ccc4[nH]nc(-c5nc6c(-c7ccsc7)ccnc6[nH]5)c4n3)c2)C1 [Compound 306, 5-(5-((3,3-difluoropyrrolidin-1-yl)methyl)pyridin-3-yl)-3-(7-(thiophen-3-yl)-3H-imidazo[4,5-b]pyridin-2-yl)-1H-pyrazolo[4,3-b]pyridine] | – | –
18 | 2.82 | > 10 | 3.83 | CCNCc1cncc(-c2ccc3[nH]nc(-c4nc5c(-c6ccoc6)ccnc5[nH]4)c3n2)c1 [Compound 314, N-((5-(3-(7-(furan-3-yl)-3H-imidazo[4,5-b]pyridin-2-yl)-1H-pyrazolo[4,3-b]pyridin-5-yl)pyridin-3-yl)methyl)ethanamine] | 23.9 | –
19 | 0.378 | 0.456 | 0.341 | CC(C)Nc1cncc(-c2ccc3[nH]nc(-c4nc5c(-c6ccoc6)ccnc5[nH]4)c3n2)c1 [Compound 320, 5-(3-(7-(furan-3-yl)-3H-imidazo[4,5-b]pyridin-2-yl)-1H-pyrazolo[4,3-b]pyridin-5-yl)-N-isopropylpyridin-3-amine] | – | –
20 | > 10 | > 10 | 0.803 | CCCCC(=O)Nc1cncc(-c2ccc3[nH]nc(-c4nc5c(-c6ccoc6)ccnc5[nH]4)c3n2)c1 [Compound 327, N-(5-(3-(7-(furan-3-yl)-3H-imidazo[4,5-b]pyridin-2-yl)-1H-pyrazolo[4,3-b]pyridin-5-yl)pyridin-3-yl)pentanamide] | 42.4 | 4.9
21 | 0.084 | 0.25 | 0.047 | Cc1ccc(-c2ccnc3[nH]c(-c4n[nH]c5ccc(-c6cncc(N)c6)nc45)nc23)s1 [Compound 395, 5-(3-(7-(5-methylthiophen-2-yl)-3H-imidazo[4,5-b]pyridin-2-yl)-1H-pyrazolo[4,3-b]pyridin-5-yl)pyridin-3-amine] | – | –
22 | 0.27 | 0.161 | 0.565 | Cc1ccc(-c2ccnc3[nH]c(-c4n[nH]c5ccc(-c6cncc(NC(=O)C(C)C)c6)nc45)nc23)s1 [Compound 401, N-(5-(3-(7-(5-methylthiophen-2-yl)-3H-imidazo[4,5-b]pyridin-2-yl)-1H-pyrazolo[4,3-b]pyridin-5-yl)pyridin-3-yl)isobutyramide] | – | –

From patent US10329309B2, “3-(3H-imidazo[4,5-B]pyridin-2-yl)-1H-pyrazolo[4,3-B]pyridines and therapeutic uses thereof” (Samumed, LLC, priority 2015, dated 2019)
